Data taken from the NIST ThermoML archive (doi:10.1016/j.jct.2019.06.011).
Numbers after ± are expanded uncertainties.

Conditions: Liquid, Gas chromatography

| SMILES | vapor or sublimation pressure (298.15 K) | vapor or sublimation pressure (310 K) | vapor or sublimation pressure (320 K) | vapor or sublimation pressure (330 K) | vapor or sublimation pressure (340 K) | vapor or sublimation pressure (350 K) | vapor or sublimation pressure (360 K) | vapor or sublimation pressure (370 K) | vapor or sublimation pressure (380 K) | vapor or sublimation pressure (390 K) | vapor or sublimation pressure (400 K) | vapor or sublimation pressure (410 K) | vapor or sublimation pressure (420 K) | vapor or sublimation pressure (430 K) | vapor or sublimation pressure (440 K) | vapor or sublimation pressure (450 K) | vapor or sublimation pressure (460 K) | vapor or sublimation pressure (470 K) | vapor or sublimation pressure (480 K) | vapor or sublimation pressure (490 K) | also measured |
| --- | --- | --- | --- | --- | --- | --- | --- | --- | --- | --- | --- | --- | --- | --- | --- | --- | --- | --- | --- | --- | --- |
| C=C1C=C[C@@H]([C@@H](C)CCC=C(C)C)CC1 [β-sesquiphellandrene] | 0.00063 ± 6e-05 kPa | 0.002 ± 0.0002 kPa | 0.0048 ± 0.0005 kPa | 0.011 ± 0.001 kPa | 0.023 ± 0.002 kPa | 0.046 ± 0.005 kPa | 0.087 ± 0.009 kPa | 0.16 ± 0.016 kPa | 0.28 ± 0.028 kPa | 0.47 ± 0.047 kPa | 0.76 ± 0.076 kPa | 1.2 ± 0.12 kPa | 1.8 ± 0.18 kPa | 2.8 ± 0.28 kPa | 4 ± 0.4 kPa | 5.8 ± 0.58 kPa | 8.2 ± 0.82 kPa | 11 ± 1.1 kPa | 15 ± 1.5 kPa | 20 ± 2 kPa | vapor or sublimation pressure (500 K): 27 ± 2.7 kPa; vapor or sublimation pressure (510 K): 35 ± 3.5 kPa; vapor or sublimation pressure (520 K): 45 ± 4.5 kPa; vapor or sublimation pressure (530 K): 57 ± 5.7 kPa; vapor or sublimation pressure (540 K): 71 ± 7.1 kPa; vapor or sublimation pressure (556.5 K): 101.3 ± 10 kPa |
| CC(C)=CCC[C@H](C)[C@@H]1C=CC(C)=CC1 [zingiberene] | 0.00081 ± 8e-05 kPa | 0.0025 ± 0.0003 kPa | 0.006 ± 0.0006 kPa | 0.013 ± 0.001 kPa | 0.028 ± 0.003 kPa | 0.056 ± 0.006 kPa | 0.11 ± 0.011 kPa | 0.19 ± 0.019 kPa | 0.33 ± 0.033 kPa | 0.56 ± 0.056 kPa | 0.91 ± 0.091 kPa | 1.4 ± 0.14 kPa | 2.2 ± 0.22 kPa | 3.3 ± 0.33 kPa | 4.8 ± 0.48 kPa | 6.8 ± 0.68 kPa | 9.6 ± 0.96 kPa | 13 ± 1.3 kPa | 18 ± 1.8 kPa | 24 ± 2.4 kPa | vapor or sublimation pressure (500 K): 31 ± 3.1 kPa; vapor or sublimation pressure (510 K): 41 ± 4.1 kPa; vapor or sublimation pressure (520 K): 52 ± 5.2 kPa; vapor or sublimation pressure (530 K): 66 ± 6.6 kPa; vapor or sublimation pressure (540 K): 83 ± 8.3 kPa; vapor or sublimation pressure (549.5 K): 101.3 ± 10 kPa |
| CC(C)=CCC[C@@H](C)c1ccc(C)cc1 [(-)-α-curcumene] | 0.00097 ± 0.0001 kPa | 0.003 ± 0.0003 kPa | 0.007 ± 0.0007 kPa | 0.015 ± 0.002 kPa | 0.032 ± 0.003 kPa | 0.063 ± 0.006 kPa | 0.12 ± 0.012 kPa | 0.21 ± 0.021 kPa | 0.37 ± 0.037 kPa | 0.62 ± 0.062 kPa | 0.99 ± 0.1 kPa | 1.6 ± 0.16 kPa | 2.4 ± 0.24 kPa | 3.5 ± 0.35 kPa | 5.1 ± 0.51 kPa | 7.3 ± 0.73 kPa | 10 ± 1 kPa | 14 ± 1.4 kPa | 19 ± 1.9 kPa | 25 ± 2.5 kPa | vapor or sublimation pressure (500 K): 33 ± 3.3 kPa; vapor or sublimation pressure (510 K): 42 ± 4.2 kPa; vapor or sublimation pressure (520 K): 54 ± 5.4 kPa; vapor or sublimation pressure (530 K): 68 ± 6.8 kPa; vapor or sublimation pressure (540 K): 85 ± 8.5 kPa; vapor or sublimation pressure (548.3 K): 101.3 ± 10 kPa |
